Test results from patent publication US20100317613A1, “ACTIVITY ENHANCER FOR DETOXIFYING ENZYME” (TAKARA BIO INC., priority 2006, published 2010).

How the values were obtained:
[1] = test system: Glutathione S-transferase (GST); test: Enhancing effect on glutathione S-transferase (GST) activity in Hepa1c1c7 cells; format: cell-based; settings: for GST activity (−fold): relative to water control
Procedure: Hepa1c1c7 cells (ATCC CRL-2026) were suspended in a Dulbecco-modified Eagle medium (manufactured by Sigma) containing 10% of fetal bovine serum (manufactured by MP Biomedicals Co.) and 1% of penicillin-streptomycin (manufactured by Nacalai Tesque, Inc.) at 4×10^5 cells/ml. To each well of a 96 well-microtiter plate, 0.2 ml of the cell suspension was added, and cultured at 37° C. overnight in the presence of 5% carbon dioxide gas. Then, the medium in the wells was replaced with a Dulbecco-modified Eagle medium. To each well, 0.4 μl of a solution of a test substance in water was added and then cultured for 24 hours. The agarobiose obtained in Preparation Example 1 and a commercially available agaro-oligosaccharide (trade name: Agaoligo, manufactured by Takara Bio Inc., containing agarobiose, agarotetraose, agarohexaose and agarooctaose in 20 to 25% each) were used as test substances. For a negative control, water was added in place of a test substance. After completion of the culture, the medium was removed and the cells were washed with a phosphate buffer. Then, 0.1 ml of a cell-lysis solution (10 mM Tris-HCl (pH 7.4), 38.5 mM KCl, and 1 mM EDTA, 1% NP-40) was added and incubated at 37° C. for 10 minutes to obtain an enzyme solution. To 25 μl of the enzyme solution, 155 μl of a reaction solution (0.13 M potassium phosphate buffer solution (pH 6.5), 1.3 mM glutathione) was added. Immediately before measurement, 20 al of 10 mM of CDNB (2,4-dinitrochlorobenzene, manufactured by TOKYO CHEMICAL INDUSTRY CO., LTD.) as a reaction substrate was added, and a change in an absorbance at 340 nm was measured. This activity assay was performed in triplicate. The protein content was measured by using a 50-fold dilution of the enzyme solution with a phosphate buffer and MicroBCA protein assay kit (manufactured by PIERCE Co.). The GST activity was expressed as a GST activity relative to the control and calculated by the following formula.
GST activity=(Maximum rate coefficient in test substance-added section/Protein content in test substance-added section)/(Maximum rate coefficient in water-added section/Protein content in water-added section)
An effect on a GST activity caused by using DGE obtained in Preparation Example 2 was determined in accordance with Example 1. Each measurement was repeated three times. The GST activity was expressed as a GST activity relative to the control and calculated by the same formula as in Example 1.

Quinone Reductase (QR) = test: Quinone reductase (QR) activity in Hepa1c1c7 cells; format: cell-based; settings: for QR activity (−fold) / QR activity (fold vs water control): relative to water control; for QR activity (fold vs water control): Table 3 (QR activity test), 24 hours
Procedure: A QR activity was measured by a partially modified method from a method described in Hans J. Prochaska et al., Analytical Biochemistry 169, 328-336 (1988). Hepa1c1c7 cells were suspended in a Dulbecco-modified Eagle medium containing 10% of fetal bovine serum and 1% of penicillin-streptomycin at 4×10^5 cells/ml. To each well of a 96 well-microtiter plate, 0.2 ml of the cell suspension was added, and cultured at 37° C. overnight in the presence of 5% carbon dioxide gas. Then, the medium in the wells was replaced with a Dulbecco-modified Eagle medium. To each well, 0.4 μl of a solution of a test substance in water was added and then cultured for 24 hours. The agarobiose obtained in Preparation Example 1 and a commercially available agaro-oligosaccharide (trade name: Agaoligo) were used as test substances. For a negative control, water was added in place of a test substance. After completion of the culture, the medium was removed and the cells were washed with a phosphate buffer. Then, 0.1 ml of a cell-lysis solution (2 mM EDTA (pH 7.8), 1% NP-40) was added and incubated at 37° C. for 10 minutes to obtain an enzyme solution. To 25 it of the enzyme solution, 100 it of a reaction solution (25 mM Tris-HCl (pH 7.4), 0.67% BSA, 0.01% Tween 20, 5 μM FAD, 1 mM G6P, 30 μM NADP, 0.3 mg/ml MTT, 2 U/ml G6PDH (manufactured by Sigma)) was added. At this time, a substrate was added or not added. In the case where a substrate was added, menadion (manufactured by Sigma) was further added at a final concentration of 50 μM into the reaction solution. After incubation at room temperature for 30 minutes, 75 μl of 2N Na2CO3 was added to terminate the reaction, and an absorbanc at 590 nm was measured. This activity assay was performed in triplicate. The protein content was measured by using a 50-fold dilution of the enzyme solution with a phosphate buffer and MicroBCA protein assay kit. The QR activity was expressed as a QR activity relative to the control and calculated by the following formula.
QR activity={[(Absorbance in test substance-added section in the presence of substrate)−(Absorbance in test substance-added section in the absence of substrate)]/(Protein content in test substance-added section)}/{[(Absorbance in water-added section in the presence of substrate)−(Absorbance in water-added section in the absence of substrate)]/(Protein content in water-added section)}

[2] = test system: Intracellular Glutathione (GSH); test: Enhancing effect on intracellular glutathione (GSH) content in Hepa1c1c7 cells; format: cell-based; settings: for GSH content (−fold): 24 hours, relative to water control
Procedure: […] was measured by a partially modified method from a method described in Clarissa Gerhauser et al., Cancer Research 57, 272-278 (1997). Hepa1c1c7 cells were suspended in a Dulbecco-modified Eagle medium containing 10% of fetal bovine serum and 1% of penicillin-streptomycin at 4×10^5 cells/ml. To each well of a 96 well-microtiter plate, 0.2 ml of the cell suspension was added, and cultured at 37° C. overnight in the presence of 5% carbon dioxide gas. Then, the medium in the wells was replaced with a Dulbecco-modified Eagle medium. To each well, 0.4 μl of a solution of a test substance in water was added and then cultured for 24 hours. The agarobiose obtained in Preparation Example 1 and a commercially available agaro-oligosaccharide (trade name: Agaoligo) were used as test substances. For a negative control, water was added in place of a test substance. After completion of the culture, the medium was removed and the cells were washed with a phosphate buffer. The solution was removed, and freeze-thaw of the cells was repeated three times. Thereto was added 0.1 ml of buffer A ([…] sodium phosphate buffer (pH 7.5), 6.3 mM EDTA) to obtain a cell lysate. To 25 it of the cell lysate, 100 al of a reaction solution (25 mM Tris-HCl (pH 7.4), 1 mM G6P, 30 μM NADP, 2 U/ml G6PDH, 0.25 U/ml glutathione reductase (manufactured by Sigma), 0.6 mM DTNB) was added. After incubation at room temperature for 5 minutes, an absorbance at 405 nm was measured. This activity assay was performed in triplicate. At the same time, as a standard, serial 2-fold dilutions of 2 to 200 al of […] were used in place of the cell lysate. The protein content was measured by using a 50-fold dilution of the cell lysate with a phosphate buffer and MicroBCA protein assay kit. The GSH content was expressed as a GSH content relative to the control and calculated by the following formula.
GSH content=[(GSH content in test substance-added section)/(Protein content in test substance-added section)]/[(GSH content in water-added section)/(Protein content in water-added section)]

mouse = test: Single oral dose toxicity in mouse; format: in vivo; settings: oral, 2,000 mg/kg body weight as a single dose
Procedure: For example, in the case of oral administration, there is no fatal case when agarobiose, agarotetraose, agarohexaose, agarooctaose, a mixture thereof, or DGE is administered to a mouse in an amount of 2,000 mg/kg body weight as a single dose. Further, there is no fatal case when the above-described active ingredient is administered orally as a single dose of 2,000 mg/kg body weight to a rat.

HL-60 cell = test: Cancer cell growth suppressing activity using HL-60 cell; format: cell-based; settings: HPLC fraction at retention time 4.05 to 4.16 minutes, found to be DGE
Procedure: The neutralized product was subjected to the following normal phase HPLC. Each peak was collected, dried under reduced pressure and then dissolved in water. A cancer cell growth suppressing activity of each fraction was measured using a HL-60 cell.

[3] = 24 hours, final concentration 100 μM
[4] = 24 hours, final concentration 200 μM

OC[C@H]1O[C@@H](O)[C@H](O)[C@@H](O[C@@H]2O[C@H]3CO[C@@H]([C@@H]2O)[C@@H]3O[C@@H]2O[C@H](CO)[C@H](O)[C@H](O[C@@H]3O[C@H]4CO[C@@H]([C@@H]3O)[C@@H]4O[C@@H]3O[C@H](CO)[C@H](O)[C@H](O[C@@H]4O[C@H]5CO[C@@H]([C@@H]4O)[C@@H]5O)[C@H]3O)[C@H]2O)[C@H]1O [Neoogarohexaose, neoagarohexaose, reference compound]
Effect on GST activity (in words) [1]: did not result in a significant increase
GST activity (−fold) [1, 3]: 1.1 fold
GST activity (−fold) [1, 4]: 1.1 fold
Effect on QR activity (in words) (Quinone Reductase (QR)): did not result in a significant increase
QR activity (−fold) (Quinone Reductase (QR); final concentration 100 μM): 1.0 fold
QR activity (−fold) (Quinone Reductase (QR); final concentration 200 μM): 1.1 fold

OC[C@H]1O[C@@H](O[C@H]2[C@H]3OC[C@@H]2OC(O)[C@H]3O)[C@H](O)[C@@H](O)[C@H]1O (mixture of isomers) [Agarobiose, agarobiose]
Effect on GST activity (in words) [1]: significant increase
GST activity (−fold) ([1]; 24 hours, final concentration 25 μM): 1.4 fold
GST activity (−fold) ([1]; 24 hours, final concentration 50 μM): 1.5 fold
GST activity (−fold) [1, 3]: 1.9 fold
GST activity (−fold) [1, 4]: 1.9 fold
Effect on QR activity (in words) (Quinone Reductase (QR)): significant increase
QR activity (fold vs water control) (Quinone Reductase (QR); final concentration 25 μM): 1.4
QR activity (fold vs water control) (Quinone Reductase (QR); final concentration 50 μM): 1.4
QR activity (fold vs water control) (Quinone Reductase (QR); final concentration 100 μM): 1.8
QR activity (fold vs water control) (Quinone Reductase (QR); final concentration 200 μM): 2.2
Effect on GSH content (in words) [2]: significant increase
GSH content (−fold) ([2]; final concentration 100 μM): 1.3 fold
GSH content (−fold) ([2]; final concentration 200 μM): 1.9 fold
Fatal cases after oral administration (mouse): no fatal case

OC[C@H]1O[C@@H](O[C@H]2[C@H]3OC[C@@H]2O[C@@H](O[C@H]2[C@@H](O)[C@@H](CO)O[C@@H](O[C@H]4[C@H]5OC[C@@H]4O[C@@H](O[C@H]4[C@@H](O)[C@@H](CO)O[C@@H](O[C@H]6[C@H]7OC[C@@H]6OC(O)[C@H]7O)[C@@H]4O)[C@H]5O)[C@@H]2O)[C@H]3O)[C@H](O)[C@@H](O)[C@H]1O (mixture of isomers) [agarohexaose]
Fatal cases after oral administration (mouse): no fatal case

O=C1C=CC(CO)OC1O [DGE, L-glycero-1,5-epoxy-1αβ,6-dihydroxy-cis-hexa-3-en-2-one]
Effect on GST activity (in words) [1]: significant increase
GST activity (−fold) ([1]; final concentration 5 μM): 1.4 fold
GST activity (−fold) ([1]; final concentration 10 μM): 1.4 fold
GST activity (−fold) ([1]; final concentration 20 μM): 1.6 fold
Fatal cases after oral administration (mouse): no fatal case
Cancer cell growth suppressing activity (HL-60 cell): had a cancer cell growth suppressing activity

OC[C@H]1O[C@@H](O[C@H]2[C@H]3OC[C@@H]2O[C@@H](O[C@H]2[C@@H](O)[C@@H](CO)O[C@@H](O[C@H]4[C@H]5OC[C@@H]4OC(O)[C@H]5O)[C@@H]2O)[C@H]3O)[C@H](O)[C@@H](O)[C@H]1O (some centres unmarked) [agarotetraose]
Fatal cases after oral administration (mouse): no fatal case

agarooctaose
Fatal cases after oral administration (mouse): no fatal case
